Source: paper PMC11409218, “Metal(triphenylphosphine)-atovaquone Complexes: Synthesis, Antimalarial Activity, and Suppression of Heme Detoxification” (Inorganic Chemistry, 2024)
Like-named read-outs stand apart in the source and are kept apart here.

Tests used:
[1] = test system: P. falciparum 3D7 (CQ-susceptible strain); experiment: Antiplasmodial activity, asexual blood stages, HRP2 ELISA-based assay, 3D7 strain; format: cell-based, Plasmodium falciparum; settings: for IC50: CQ-susceptible 3D7 strain, 72 h drug incubation, mean of five to seven experiments, read-out: P. falciparum IC50 (±SEM), 3D7
From the text: We determined the half-maximal inhibitory concentration (IC50) of the complexes against asexual blood stages of P. falciparum using CQ-susceptible and CQ-resistant strains (Table 2). […]. Two strains were selected for the tests: the CQ-susceptible 3D7 strain (isolated in West Africa; obtained from MR4, VA, USA), and the CQ-resistant W2 strain (isolated in Indochina; obtained from MR4, VA, USA). Both were maintained in culture in RPMI 1640 (Invitrogen, Paisley, UK), supplemented with 10% human serum (Abcys S.A. Paris, France), and buffered with 25 mM HEPES and 25 mM NaHCO3. Parasites were grown in A-positive human blood (Etablissement Français du Sang, Marseille, France) in controlled atmospheric conditions that consisted of 10% O2, 5% CO2, and 85% N2 at 37 °C with 95% humidity. […]
For in vitro isotopic microtests, 25 μL/well of antimalarial drug and 200 μL/well of parasitized red blood cell suspension (final parasitemia 0.5%, final hematocrit 1.5%) were distributed into 96-well plates. The plates were incubated for 72 h at 37 °C in 85% N2, 10% O2, 5% CO2. After freezing and then thawing, the hemolyzed cultures were homogenized by vortexing the plates. The drug susceptibility assay was performed using the HRP2 ELISA-based assay of the Malaria Ag Celisa kit (ref KM2159, Cellabs PTY LDT, Brookvale, Australia), as described previously.[72] […] […]. IC50 are expressed as means of at least 5 to 7 independent experiments.

[2] = test system: P. falciparum W2 (CQ-resistant strain); experiment: Antiplasmodial activity, asexual blood stages, HRP2 ELISA-based assay, W2 strain; format: cell-based, Plasmodium falciparum; settings: CQ-resistant W2 strain, 72 h drug incubation, mean of five to seven experiments, read-out: P. falciparum IC50 (±SEM), W2
Procedure: The potency of the metal complexes to inhibit parasite growth was also examined in comparison with ATV.
The two strains were synchronized twice with sorbitol before use,[69] and clonality was verified every 15 days through PCR genotyping of the polymorphic genetic markers msp1 and msp2 and microsatellite loci.[70],[71] Compounds were resuspended in DMSO and then diluted in RPMI-DMSO (99v/1v) to obtain final concentrations ranging from 0.25 to 20000 nM.
After freezing and then thawing, the hemolyzed cultures were homogenized by vortexing the plates. The drug susceptibility assay was performed using the HRP2 ELISA-based assay of the Malaria Ag Celisa kit (ref KM2159, Cellabs PTY LDT, Brookvale, Australia), as described previously.[72]

[3] = Buffer–n-octanol distribution coefficient (shaking flask method)
Procedure: The distribution coefficient (Log D), a proxy parameter to estimate drug lipophilicity, was assessed for ATV and its metal complexes 1–3.
Buffer–n-octanol distribution coefficients were determined using the shaking flask method.[73] A UV–vis calibration curve was prepared in the 10–100 μM range in n-octanol. […] The concentration of complex in n-octanol was measured spectrophotometrically in order to determine values of D = [compound] (in n-octanol)/[compounds] (in buffer).[66],[67]

[4] = Solubility in solvents; format: physicochemical; settings: for solubility in common organic solvents: dichloromethane, chloroform, dimethyl sulfoxide, acetone
From the text: (see Experimental Section). The chemical and physical characterization of ATV and the metal–ATV complexes are presented in the Supporting Information (Figures S1–S16). […] We attributed this band to a metal-to-ligand charge transfer (MLCT metal →π ATV naphthoquinone)[37] (Figures S3, S26–S28).

[5] = Interaction with ferriprotoporphyrin IX, spectroscopic titration of Soret band at 402 nm; format: binding; settings: for log K (association constant of drug binding to hemin): pH 7.4, 40% aqueous DMSO, 1:1 complexation model, mean and SEM of three experiments; for hypochromic effect on the Soret band of hemin: until saturation point, 402 nm
Procedure: The association constants (Log K) of the compounds with hemin were determined at pH 7.4 using a 1:1 complexation model with the equation proposed by Egan et al.[52] for the nonlinear least-squares fitting (Figure 2, Table 2).
Following a procedure described in the literature,[52] the association constant (Log K) of the drugs with ferriprotoporphyrin IX was determined in 40% aqueous DMSO. A stock solution of hemin chloride was prepared by adding 3.5 mg hemin to 10 mL DMSO and adjusted to pH 7.5. A working solution of hemin in 40% DMSO was further prepared by mixing 140 μL hemin stock solution, 5 mL distilled water, 3.86 mL DMSO, and 1 mL 0.2 M Tris (tris(hydroxymethyl)aminomethane) buffer. Aliquots of compounds were added to this working hemin solution. Blank solutions containing only hemin or compounds were prepared to subtract the absorbance of the compounds. […] Binding affinity was determined using the equation A = (A0 + A∞K[C])/(1 + K[C]) for a 1:1 complexation model using nonlinear least-squares fitting, where A0 is the absorbance of Fe(III)PPIX, A∞ is the absorbance of the compound–hemin adduct at saturation, and K is the association constant. Three independent experiments were performed.

[6] = test system: HepG2 cells; experiment: Cytotoxicity in mammalian cells (CellTiter-Glo), HepG2; format: cell-based; settings: HepG2 human hepatocellular carcinoma line; 72 h drug incubation; mean of three experiments; read-out: mammalian cells CC50 (±SEM), HepG2
Procedure: (§1) Cell lines J774 and HepG2 were incubated with the drug for 72 h, the same time frame as employed to determine antimalarial activity. Cytotoxicity was evaluated in parallel with ATV as a representative parental drug, while doxorubicin was used as a standard cytotoxic drug. These experiments were also used to estimate the in vitro selectivity index (Table 2).
(§2) Doxorubicin chloridrate (Eurofarma, São Paulo, Brazil) was used as a positive control, while untreated cells were employed as negative controls. Bioluminescence readings were performed using a Filtermax F5Multi-Mode instrument (Molecular Devices, Sunnyvale, CA) using the CellTiter-Glo kit (Promega Corporation, Madison, USA). Three independent experiments were performed and CC50 values were calculated.

[7] = test system: J774 cells; experiment: Cytotoxicity in mammalian cells (CellTiter-Glo), J774; format: cell-based; settings: J774 murine macrophage line; 72 h drug incubation; mean of three experiments; read-out: mammalian cells CC50 (±SEM), J774
Procedure: as §1, §2

Row | IC50 ([1]; Plasmodium falciparum) [nM] | IC50 ([2]; Plasmodium falciparum) [nM] | logD at 18 h ([3]; pH 5) | logD at 18 h ([3]; pH 7) | Molecule | IC50 [1] [nM] | IC50 [2] [nM] | log D pH 5 ([3]; pH 5) | log D pH 7 ([3]; pH 7) | solubility in common organic solvents [4] | solubility in methanol, ethanol, and acetonitrile [4] | log K (association constant of drug binding to hemin) [5] | hypochromic effect on the Soret band of hemin [5] [%] | CC50 [6] [nM] | CC50 [7] [nM] | Selectivity index (S.I.) ([1]; CC50 (J774)/IC50(3D7))
1 |  |  |  |  | O=C1C([O][Cu]([PH](c2ccccc2)(c2ccccc2)c2ccccc2)[PH](c2ccccc2)(c2ccccc2)c2ccccc2)=C([C@H]2CC[C@H](c3ccc(Cl)cc3)CC2)C(=O)c2ccccc21 [Complex 3, [Cu(ATV)(PPh3)2]] | 30.7 ± 10.7 | 26.3 ± 6.9 | –5.18 | 1.06 | had enough solubility | partially soluble | 3.97 ± 0.01 | 38 | 44300 ± 7700 | 36100 ± 3900 | 
2 | 2.4 ± 1.2 | 2.1 ± 0.9 | -1.17 | -1.15 | O=C1C(O)=C([C@H]2CC[C@H](c3ccc(Cl)cc3)CC2)C(=O)c2ccccc21 [ATV, atovaquone] |  |  |  |  |  |  | 3.64 ± 0.10 | 42 |  |  | 8250
3 |  |  |  |  | [Au(ATV)(PPh3)]·2H2O [Complex 2] | 8.1 ± 2.7 | 5.2 ± 2.2 | –1.87 | –1.71 | had enough solubility | partially soluble | 4.46 ± 0.01 | 51 | 8900 ± 2700 | 10800 ± 3400 | 
4 |  |  |  |  | [Ag(ATV)(PPh3)2] [Complex 1] | 30.5 ± 9.7 | 26.5 ± 7.8 | –2.12 | 0.08 | had enough solubility | partially soluble | 4.33 ± 0.05 | 37 | 14600 ± 900 | 9500 ± 2200 | 
